Common to all, as to experiment: Microalgae-destroying effect by IC50 measurement (cell count)
Common to all, as to type: cell-based

In assay [1] the test system is Heterosigma Akashiwo. Conditions: 24 h, read-out: IC50 Heterosigma Akashiwo. As to the method:
(§1) The IC50 value was obtained according to Equation 1: […]
(§2) First, the above-listed microalgae were cultured in a culture flask at a temperature of about 20° C. under light conditions, and a medium used was Guillard's f/2 medium which is commonly used in the art (Guillard R R L and Keller M D. Culturing dinoflagellates. In: Spector (Ed.), Dinoflagellates. New York: Academic Press; 1984, 391442).
(§3) After the cultured microalgae were transferred onto a 24-well plate, Chattonella Marina, Heterosigma circularisquama, Cochlodinium Polykrikoides, and Heterosigma akashiwo, which were in an exponential growth phase, were treated with Compounds 1 to 3, 5 to 10, 12, 13, 17 to 43, and 45 to 47 synthesized in Examples 1 to 3, 5 to 10, 12, 13, 17 to 43, and 45 to 47 at concentrations of 0.1 uM, 0.2 uM, 0.5 uM, 1 uM, 2 uM, and 5 uM, and then cultured for 1 day.
(§4) Control groups were not treated with any of the compounds synthesized in the above-identified examples. After incubation, the number of cells of each alga was counted using a Burker-Tukr hemocytometer, and IC50 values were calculated according to Equation 1 using SigmaPlot Version 11.2 software (Standard curve: the four-parameter logistic curve).

In assay [2] the test system is Chattonella Marina. To be noted: 24 h, read-out: IC50 Chattonella Marina. The method, then: as §1, §2, §3, §4
Assay [3] has as its system Heterocapsa Circularisquama. Conditions: 24 h. As to the method:
as §1, §2, §3, §4

For assay [4], the system named is Microcystis aeruginosa. To be noted: Microcystis aeruginosa, 120 h, read-out: IC50 Microcystis aeruginosa. As to the method:
(§5) The IC50 value was obtained according to Equation 1:
(§6) The algicidal activity of each compound was calculated using Equation 2: Algicidal activity (%)=(1−Tt/Ct)×100 <Equation 2>
(§7) In Equation 2, T (treatment group) and C (control group) represent algae densities in cell counts when each compound was inoculated and was not inoculated, respectively, and t represents the number of days which had passed after the inoculation.
as §2
Microcystis aeruginosa was treated with Compounds 1 to 3, 5 to 10, 12, 13, 17 to 43, and 45 to 51 synthesized in Examples 1 to 3, 5 to 10, 12, 13, 17 to 43, and 45 to 51 at concentrations of 0.1 uM, 0.2 uM, 0.5 uM, 1 uM, 2 uM, 5 uM, 10 uM, 15 uM, and 20 uM and then cultured for 5 days.
as §4

Assay [5] has as its system Cochlodinium Polykrikoides. To be noted: Margalefidinium polykrikoides, 24 h, read-out: IC50 Cochlodinium Polykrikoides. The method, then: as §5, §6, §7, §2, §3, §4
[6] abbreviates: Table 1, 3,4-dichlorobenzylamines, 0.1-5 uM, cultured 1 day.
[7] abbreviates: Table 1, 3,4-dichlorobenzylamines, 0.1-5 uM, cultured 1 day, read-out: IC50 Heterocapsa Circularisquama.
The mark [8] stands for this setting: Table 1, 3,4-dichlorobenzylamines, 0.1-20 uM, cultured 5 days.
Where [9] appears, read: Table 2, 0.1-5 uM, cultured 1 day.
The mark [10] stands for this setting: Table 2, 0.1-5 uM, cultured 1 day, read-out: IC50 Heterocapsa Circulariaquama.

Structures are written as SMILES. Where two headings read alike, the source gives them in different places.

Consider 13 compounds from patent publication US11044909B2, “Composition for destruction of microalgae or sphaerocarpus” (CUREARTH, INC., priority 2015, dated 2021).

Take `Clc1ccc(CNCc2ccccc2)cc1Cl` [Compound 29, Benzyl-(3,4-dichloro-benzyl)-amine]: the IC50 is 600 nM in assay [1] (setting [6]); 3460 nM in assay [2] (setting [6]); 3230 nM in assay [3] (setting [7]); 14400 nM in assay [4] (setting [8]); 2750 nM in assay [5] (setting [6]).
The matching figures for `Clc1ccc(CNCCc2ccncc2)cc1Cl` [Compound 30, (3,4-Dichloro-benzyl)-(2-pyridin-4-yl-ethyl)-amine]: 420 nM, 3470 nM, 1910 nM, above 20000 nM and 2700 nM.
In the same order, the values of `Clc1ccc(CNCCc2cccnc2)cc1Cl` [Compound 31, (3,4-Dichloro-benzyl)-(2-pyridin-3-yl-ethyl)-amine] are 590 nM, 3500 nM, 1600 nM, above 20000 nM and 424 nM.
In the same order, the values of `Clc1ccc(CNCCc2ccccn2)cc1Cl` [Compound 32, (3,4-Dichloro-benzyl)-(2-pyridin-2-yl-ethyl)-amine] are 180 nM, 310 nM, 1050 nM, 19600 nM and 500 nM.
With `Clc1ccc(CNCCc2ccccc2)cc1Cl` [Compound 34, (3,4-Dichloro-benzyl)-phenethyl-amine], the IC50 in assay [1] (setting [6]) was determined as 120 nM; in assay [2] (setting [6]), 460 nM; in assay [3] (setting [7]) it was 1500 nM; in assay [4] (setting [8]), 5970 nM; in assay [5] (setting [6]), 875 nM.
In the case of `Clc1ccc(CNC2CCCCCC2)cc1Cl` [Compound 36, Cycloheptyl-(3,4-dichloro-benzyl)-amine], the IC50 was 263 nM in assay [1] (setting [6]); 250 nM in assay [2] (setting [6]); 690 nM in assay [3] (setting [7]); 3090 nM in assay [4] (setting [8]); 150 nM in assay [5] (setting [6]).
Take `c1ccc(CNCCc2ccccn2)cc1` [Compound 37, Benzyl-(2-pyridin-2-yl-ethyl)-amine]: the IC50 in assay [1] (setting [9]) was 130 nM; in assay [2] (setting [9]), 340 nM; in assay [3] (setting [10]), above 5000 nM; in assay [4], above 5000 nM; in assay [5] (setting [9]), above 5000 nM.
On to `Oc1ccccc1CNCCc1ccccn1` [Compound 38, 2-[(2-Pyridin-2-yl-ethylamino)-methyl]-phenol], for which the IC50 in assay [1] (setting [9]) is 130 nM; in assay [2] (setting [9]), 910 nM; in assay [3] (setting [10]), above 5000 nM; in assay [4] it was above 5000 nM; in assay [5] (setting [9]) it was above 5000 nM.
As for `Brc1ccccc1CNCCc1ccccn1` [Compound 39, (2-Bromo-benzyl)-(2-pyridin-2-yl-ethyl)-amine], the IC50 in assay [1] is 280 nM; in assay [2] it was 1120 nM; in assay [3] (read-out: IC50 Heterocapsa Circulariaquama), above 5000 nM; in assay [4], above 5000 nM; in assay [5], above 5000 nM.
On to `Brc1cccc(CNCCc2ccccn2)c1` [Compound 40, (3-Bromo-benzyl)-(2-pyridin-2-yl-ethyl)-amine], for which the IC50 in assay [1] (setting [9]) was 570 nM; in assay [2] (setting [9]), 740 nM; in assay [3] (setting [10]), above 5000 nM; in assay [4], above 5000 nM; in assay [5] (setting [9]), 3500 nM.
As to `Brc1ccc(CNCCc2ccccn2)cc1` [Compound 41, (4-Bromo-benzyl)-(2-pyridin-2-yl-ethyl)-amine], the IC50 was 140 nM in assay [1] (setting [9]); 720 nM in assay [2] (setting [9]); above 5000 nM in assay [3] (setting [10]); above 5000 nM in assay [4]; above 5000 nM in assay [5] (setting [9]).
As to `c1ccc(CNC2CCCCCC2)cc1` [Compound 42, Benzyl-cycloheptyl-amine], the IC50 in assay [1] (setting [9]) was 150 nM; in assay [2] (setting [9]), 520 nM; in assay [3] (setting [10]), above 5000 nM; in assay [4], above 5000 nM; in assay [5] (setting [9]), above 5000 nM.
In the case of `c1ccc(CNC2CCCCC2)cc1` [Compound 43, Benzyl-cyclohexyl-amine], the IC50 in assay [1] (setting [9]) was 670 nM; in assay [2] (setting [9]) it was above 5000 nM; in assay [3] (setting [10]), above 5000 nM; in assay [4] it was above 5000 nM; in assay [5] (setting [9]) it was above 5000 nM.
